Key:
[1] = biological target: T1, Human PTP1B catalytic domain (1-300) (Homo sapiens, UniProt P18031); assay: PTP1B Michaelis-Menten kinetic assay with DiFMUP; type: biochemical; settings: PTP1B 0.5 nM
T1 construct: Human PTP1B catalytic domain (1–300) was cloned into PET-15b; His tag (pET-15b) (N); made in house; host or cells: E. coli (as for STEP46, BL21 (DE3))
T1 sequence (P18031 1-300): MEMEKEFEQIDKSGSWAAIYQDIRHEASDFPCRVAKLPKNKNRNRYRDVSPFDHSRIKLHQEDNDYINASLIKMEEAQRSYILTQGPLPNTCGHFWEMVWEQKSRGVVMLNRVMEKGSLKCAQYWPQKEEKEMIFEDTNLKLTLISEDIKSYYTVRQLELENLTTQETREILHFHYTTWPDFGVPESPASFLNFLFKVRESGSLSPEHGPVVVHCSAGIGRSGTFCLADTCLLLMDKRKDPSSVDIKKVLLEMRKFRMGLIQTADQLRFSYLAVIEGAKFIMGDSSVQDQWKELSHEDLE
Method: Human STEP46 and PTP1B activity was measured at room temperature (RT) in a 384-well plate format standard phosphatase fluorescence intensity assay using DiFMUP as a substrate and a total reaction volume of 25 μL. PTP working solutions were prepared at a 0.625 nM concentration (for a final concentration of 0.5 nM) in buffer containing 50 mM Bis-Tris pH 6.0, 50 mM NaCl, 5 mM DTT, and 0.01% Tween® 20. DiFMUP working solutions at 5X final concentration were prepared in 50 mM Bis-Tris pH 6.0, 50 mM NaCl, and 0.01% Tween 20. […] Fluorescence intensity was measured in kinetic mode (every minute for 10 min) using a Tecan Spark® Multimode Microplate Reader (Tecan, Groedig, Austria) with an excitation wavelength of 360 nm and an emission wavelength of 460 nm. The initial rates were determined from the linear progress curves of the PTP reaction. […] Michaelis–Menten plots were generated for each PTP construct, and Michaelis–Menten constants (Km) were calculated using the program GraphPad Prism (version 8, GraphPad Software, Inc., San Diego, CA, USA).

full-length human STEP46 = biological target: T2, full-length human STEP46 (Homo sapiens, UniProt P54829); assay: STEP46 biochemical inhibition assay (DiFMUP phosphatase fluorescence intensity assay); settings: powder-confirmed hits, 10-pt dose-response, 0.5 nM STEP46, DiFMUP 3 μM, 20 min preincubation, pH 6.0, RT
T2 construct: Codon-optimized human full-length STEP46 cDNA was synthesized; His tag (pET-15b) (N); made in house; host or cells: E. coli BL21 (DE3)
T2 sequence (P54829 173-541 isoform P54829-3 limits assumed): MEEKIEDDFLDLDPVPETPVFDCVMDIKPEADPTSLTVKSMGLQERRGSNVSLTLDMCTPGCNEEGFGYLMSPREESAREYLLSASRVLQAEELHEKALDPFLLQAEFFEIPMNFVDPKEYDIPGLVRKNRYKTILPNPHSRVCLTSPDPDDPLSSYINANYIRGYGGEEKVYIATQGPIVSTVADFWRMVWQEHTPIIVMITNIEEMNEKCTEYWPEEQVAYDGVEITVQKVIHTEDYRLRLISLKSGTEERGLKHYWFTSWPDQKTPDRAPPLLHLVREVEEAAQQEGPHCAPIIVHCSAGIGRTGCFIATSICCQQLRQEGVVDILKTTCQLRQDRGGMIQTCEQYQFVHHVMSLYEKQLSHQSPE
Description: Employing the established STEP46 DiFMUP assay to determine enzymatic activity, we tested the 72 confirmed hits in 10-pt dose-response biochemical inhibition experiments. […] This rate of biochemically active compounds from confirmed PTS hits was in agreement with our prior experience from a similar PTS screening campaign against the SHP2 phosphatase (unpublished data). Next, we obtained commercial dry powders of the 17 biochemically active hits to confirm their activity from pure, fresh material. Powders were quality controlled using standard ^1H-NMR and LC-MS methods and repurified in cases where purity was determined to be below 95%. Pure powders were then retested in 10-pt dose-response STEP46 inhibition assays. Activity could be confirmed for 10 of the 17 powders.
(§1) Hit compounds were tested at room temperature (RT) in a 384-well plate format standard phosphatase fluorescence intensity assay using DiFMUP as a substrate and a total reaction volume of 25 μL. Compounds or vehicle (DMSO) were spotted in triplicate into a black Greiner FLUOTRAC 200 384-well microplate for a 10-point dose-response assay using the Echo 555 liquid handler. PTP working solutions were prepared at a 0.625 nM concentration (for a final concentration of 0.5 nM) in buffer containing 50 mM Bis-Tris pH 6.0, 50 mM NaCl, 5 mM DTT, and 0.01% Tween 20. DiFMUP working solutions at 5X final concentration were prepared in 50 mM Bis-Tris pH 6.0, 50 mM NaCl, and 0.01% Tween 20. PTP working solution (20 μL) was dispensed into the microplate and incubated with compound for 20 min at RT. […] The reaction was initiated by addition of 5 μL DiFMUP working solutions. Fluorescence intensity was measured in a kinetic mode as described above. IC50 values were calculated from the corrected initial rates by nonlinear regression using the program GraphPad Prism (version 8, GraphPad Software, Inc., San Diego, CA, USA).

[2] = biological target: T1, Human PTP1B catalytic domain (1-300); assay: PTP1B biochemical inhibition assay (DiFMUP phosphatase fluorescence intensity assay); settings: powder-confirmed hits, 10-pt dose-response, 0.5 nM PTP1B, DiFMUP 25 μM, 20 min preincubation, pH 6.0, RT
Method: One of the major issues in prior STEP HTS campaigns using phosphatase activity as a readout was the lack of potent chemical matter with relative selectivity for STEP (PubChem AID: 588,619 and our unpublished data). […] For these assays, we expressed and purified the catalytic domain of PTP1B (1-300) using an approach similar to the one described for STEP46 above. The enzymatic activity of the highly pure PTP1B was assessed by adapting the DiFMUP phosphatase assay. Similar to STEP46, a concentration of 0.5 nM PTP1B was found optimal for kinetic experiments. […] Using DiFMUP at that concentration, we tested all 10 powder-confirmed hits in 10-pt dose-response inhibition assays against PTP1B.
as §1

AD mice = test system: AD mice; set-up: method as in PMID 25093460; settings: cited from earlier work

Km [1] [µM]	IC50 (full-length human STEP46) [µM]	IC50 [2] [µM]	Structure (SMILES)	Effect on cognitive deficits in AD mice (AD mice)
25	–	–	Cc1cc(=O)oc2c(F)c(OP(=O)(O)O)c(F)cc12 [DiFMUP, 6,8-difluoro-4-methylumbelliferyl phosphate]	–
–	5.7	6.1	Cc1ccc(Nc2nc(CSc3nnnn3-c3ccccc3)cc(=O)[nH]2)cc1 [SBI-0738]	–
–	5.5	22	Cc1c2c(=O)n(-c3nc4ccccc4s3)[nH]c2cc(=O)n1CCC(C)C [SBI-0743]	–
–	7	28	O=C(CSc1c[nH]nn1)Nc1ccc(/C=C/c2ccccc2)cc1 [SBI-1359]	–
–	5.3	14	NC(=O)c1cccc(NC(=O)c2cc3c(ccc4ccccc43)o2)c1 [SBI-2136]	–
–	5	> 100	Nc1oc2cc(O)ccc2c(=O)c1-c1nc2ccccc2s1 [SBI-6066]	–
–	5.4	> 100	Cc1cc(C)cc(C(=O)Nc2ccc(-c3nc4ccccc4[nH]3)cc2)c1 [SBI-6083]	–
–	18	57	O=C(Cc1ccc(Cl)cc1)Nc1ccc(C(=O)Nc2cccc(O)c2)cc1 [SBI-6727]	–
–	32	> 100	N#Cc1sc2nc(-c3ccc4c(c3)OCO4)ccc2c1N [SBI-7297]	–
–	16	79	COc1ccccc1-c1ccc2c(N)c(C#N)sc2n1 [SBI-8771]	–
–	33	20	Nc1ccc(NCC2CCCO2)c(C(=O)O)c1 (stereo not shown) [SBI-8929]	–
–	–	–	Nc1cc(C(F)(F)F)cc2c1SSSSS2 [TC-2153]	effectively reversed cognitive deficits
